Results taken from patent EP4570805A1, “TRICYCLIC COMPOUNDS AND MEDICAL USE THEREOF” (Chia Tai Tianqing Pharmaceutical Group Co., Ltd., priority 2022, dated 2024).

Assays:
[1] = system: AsPc-1 cells; test: Inhibitory activity for AsPc-1 cell proliferation (CCK-8); type: cell-based, human
Method: AsPc-1 cells in a well-growing state were collected into a centrifuge tube, adjusted to a cell density of 3 × 10^4 cells/mL, and inoculated onto a 96-well plate (100 µL/well). The compounds were added using a nanoliter pipettor such that the final concentrations of the compounds were 5000 nM-0.31 nM (the addition was performed in duplicate). Meanwhile, a control was set. After 72 h of incubation in the cell incubator, the assay reagent CCK-8 (manufacturer: Dojindo Laboratories; 10 µL/well) was added. After 3 h of incubation in the cell incubator, the absorbance was measured at 450 nm on a PerkinElmer Envision microplate reader. A four-parameter analysis was performed, a dose-response curve was fitted, and IC50 was calculated.

[2] = system: Capan-1 cells; test: Inhibitory activity for Capan-1 cell proliferation (CCK-8); type: cell-based; settings: 5 days incubation
Method: Capan-1 cells in a well-growing state were collected into a centrifuge tube, adjusted to a cell density of 1.5 × 10^4 cells/mL, and inoculated onto a 96-well plate (100 µL/well). […] Meanwhile, a control was set. After 5 days of incubation in the cell incubator, the assay reagent CCK-8 (manufacturer: Dojindo Laboratories, Beijing; 10 µL/well) was added. After 4 h of incubation in the cell incubator, the absorbance was measured at 450 nm on a PerkinElmer Envision microplate reader. A four-parameter analysis was performed, a dose-response curve was fitted, and IC50 was calculated.

[3] = Homo sapiens, ASPC1, 72 h incubation

Row | SMILES | IC50 [1, 3] | IC50 ([2]; Homo sapiens, CAPAN-1, 120 h) | also measured
1 | C#Cc1c(F)ccc2cc(O)cc(-c3nc4c5c(nc(OCC67CCCN6CC(F)C7)nc5c3F)N(CC)C(C)CO4)c12 (single isomer, unassigned) [Example 32] | ≤ 100 nM | < 100 nM | –
2 | C#Cc1c(F)ccc2cc(O)cc(-c3nc4c5c(nc(OCC67CCCN6CC(F)C7)nc5c3F)N(C(C)c3cccnc3N)CCO4)c12 (single isomer, unassigned) [Example 36] | ≤ 100 nM | < 100 nM | –
3 | C#Cc1c(F)ccc2cc(O)cc(-c3nc4c5c(nc(OCC67CCCN6CC(F)C7)nc5c3F)N(C(C)c3cccnc3N)C(C)CO4)c12 (single isomer, unassigned) [Example 39] | ≤ 100 nM | < 100 nM | –
4 | C#Cc1c(F)ccc2cc(O)cc(-c3nc4c5c(nc(OCC67CCCN6CC(F)C7)nc5c3F)N(C(C)c3cccnc3N)C(C)CO4)c12 (single isomer, unassigned) [Example 40] | – | – | IC50 ([1]; 72 h incubation): ≤ 100 nM; IC50 [2]: < 100 nM
5 | C#Cc1c(F)ccc2cccc(-c3nc4c5c(nc(OCC67CCCN6CC(F)C7)nc5c3F)N(C(C)c3cccnc3N)C(C)CO4)c12 (single isomer, unassigned) [Example 47] | ≤ 100 nM | < 100 nM | –
6 | C#Cc1c(F)ccc2cc(O)cc(-c3nc4c5c(nc(OCCCN6CCOCC6)nc5c3F)N(C(C)c3cccnc3N)[C@@H](C)CO4)c12 (single isomer, unassigned) [Example 154] | – | < 100 nM | –
7 | CC(c1cccnc1N)N1c2nc(OC[C@@H]3CCCN3C)nc3c(F)c(-c4ccc(F)c5sc(N)c(C#N)c45)nc(c23)OC[C@@H]1C (single isomer, unassigned) [Example 158] | – | < 100 nM | –
8 | Cc1cccc(-c2nc3c4c(nc(OC[C@@H]5CCCN5C)nc4c2F)N(C(C)c2cccnc2N)[C@@H](C)CO3)c1C(F)(F)F (single isomer, unassigned) [Example 160] | – | < 100 nM | –
9 | C#Cc1c(F)ccc2cc(N)cc(-c3nc4c5c(nc(OCC67CCCN6CCC7)nc5c3F)N(C(C)c3cccnc3N)[C@@H](C)CO4)c12 (single isomer, unassigned) [Example 164] | ≤ 100 nM | – | –
10 | C#Cc1c(F)ccc2cc(O)cc(-c3nc4c5c(nc(OCCN6CCCCC6)nc5c3F)N(C(C)c3cccnc3N)[C@@H](C)CO4)c12 (single isomer, unassigned) [Example 166] | – | < 100 nM | –
11 | C#Cc1c(F)ccc2cc(O)cc(-c3nc4c5c(nc(OCCN6CCN(C)CC6)nc5c3F)N(C(C)c3cccnc3N)[C@@H](C)CO4)c12 (single isomer, unassigned) [Example 168] | – | < 100 nM | –
12 | C#Cc1c(F)ccc2cc(O)cc(-c3nc4c5c(nc(OCCCN6CCN(C)CC6)nc5c3F)N(C(C)c3cccnc3N)[C@@H](C)CO4)c12 (single isomer, unassigned) [Example 170] | – | < 100 nM | –
13 | C#Cc1c(F)ccc2cc(O)cc(-c3nc4c5c(nc(OC[C@@H](C)N6CCC6)nc5c3F)N(C(C)c3cccnc3N)[C@@H](C)CO4)c12 (single isomer, unassigned) [Example 174] | – | < 100 nM | –
14 | C#Cc1c(F)ccc2cc(O)cc(-c3nc4c5c(nc(OC[C@@]67CCCN6CC(=C)C7)nc5c3F)N(C(C)c3cccnc3N)[C@@H](C)CO4)c12 (single isomer, unassigned) [Example 178] | ≤ 100 nM | – | –
15 | C#Cc1c(F)ccc2cc(O)cc(-c3nc4c5c(nc(OC[C@@]67CCCN6C[C@H](F)C7)nc5c3F)N(C(C)c3cccnc3N)[C@H](C)CO4)c12 (some centres unmarked) [Example 41] | – | < 100 nM | –
16 | C#Cc1c(F)ccc2cc(O)cc(-c3nc4c5c(nc(OC[C@@]67CCCN6C[C@H](F)C7)nc5c3F)N(C(C)C)C(C)CO4)c12 (some centres unmarked) [Example 49] | ≤ 100 nM | – | –
17 | C#Cc1c(F)ccc2cc(O)cc(-c3nc4c5c(nc(OC[C@@]67CCCN6C[C@H](F)C7)nc5c3F)N(CC(F)F)C(C)CO4)c12 (some centres unmarked) [Example 50] | – | < 100 nM | –
18 | CC(c1cccnc1N)N1c2nc(OC[C@@]34CCCN3C[C@H](F)C4)nc3c(F)c(-c4ccc(F)c5sc(N)c(C#N)c45)nc(c23)OC[C@@H]1C (some centres unmarked) [Example 81] | – | < 100 nM | –
